Key:
Test in all cases: Biotinylated BACE020 peptide binding ELISA
[1] = target: T1, human BACE1 ECD mutant Q134A (73) (Homo sapiens, UniProt P56817, Q134A)
T1 construct: extracellular domain (ECD) (residues 22-457) and a C-terminal His8 tag; made in house; host or cells: Chinese hamster ovary cells (transient)
Excerpt: (§1) Human BACE1 mutants were made in a pRK vector containing the BACE 1 signal peptide followed by its extracellular domain (ECD) (residues 22-457) and a C-terminal His8 tag (SEQ ID NO: 54). Mutations were made using the appropriate oligonucleotide using a QuikChange® II XL Site-Directed Mutagenesis kit (Agilent Technologies Stratagene Products, La Jolla, Calif.) and confirmed by DNA sequencing. Proteins were expressed transiently using Chinese hamster ovary cells growing in 1-liter fermenters and cultures were harvested after 2 weeks. Following centrifugation, mutant proteins from the medium were purified to homogeneity (>95% purity) by chromatography on Ni-NTA agarose (Qiagen, Valencia, Calif.). After washing with PBS containing 10 mM imidazole, proteins were eluted with PBS containing 200 mM imidazole and the eluate was pooled, concentrated using a Vivaspin 20 (Sartorius-stedim, Goettingen, Germany) and applied to a Superdex 200 10/300 GL column (GE Healthcare Bio-Sciences AB, Uppsala, Sweden) equilibrated in 20 mM HEPES pH 7.2, 150 mM NaCl. Protein peaks were collected, concentrated and protein concentration determined by A280.
(§2) Binding of biotinylated BACE020 to recombinant protein was determined by a 96-well plate assay. Maxisorp microtiter plates (Nalge Nunc International, Rochester, N.Y.) were coated overnight at 4° C. with 2 μg/ml BACE 1 mutant in 50 mM carbonate, pH 9.6. The coated wells were washed with buffer (PBS, 0.05% Polysorbate 20) and blocked with assay buffer (PBS, pH 7.4, 0.5% BSA, 0.05% Tween 20, 15 ppm Proclin) for 1 h at room temperature with gentle shaking. After blocking, various concentrations of C-terminal biotin tagged BACE020 peptide with a polyethylene glycol (PEG) spacer (Ac-[…]-(PEG)3-biotin (SEQ ID NO: 16); Ac-[…]-CONH—CH2—(CH2—CH2—O—)3—(CH2)3—NH-biotin (SEQ ID NO: 16)) diluted in assay buffer were added and plates were incubated for 1 h with gentle shaking at room temperature. After washing, the amount of peptide bound to the plate was detected by the addition of Streptavidin-Horseradish Peroxidase Conjugate (GE Healthcare, Piscataway, N.J.) followed by the addition of TMB/H2O2 substrate (KPL, Gaithersburg, Md.). The reaction was quenched with 1 M phosphoric acid and the A450 measured on a Molecular Devices SpectraMax Plus384 microplate reader. Concentrations to give half maximal effective concentration (EC50) were determined using a 4-parameter non-linear regression curve-fitting program with Kaleidagraph (Synergy Software, Reading, Pa.). […] Concentrations to give half maximal inhibition concentration (IC50) were determined using a 4-parameter non-linear regression curve-fitting program with Kaleidagraph.
(§3) The ability of biotinylated BACE020 to bind to BACE1 and mutants was determined using an ELISA assay. The fold decrease in binding affinity was determined as the relative EC50 values of EC50 (mut)/EC50 (WT), which are listed in Table 3.

[2] = target: T2, human BACE1 ECD mutant Y132A (71) (Homo sapiens, UniProt P56817, Y132A)
T2 construct: extracellular domain (ECD) (residues 22-457) and a C-terminal His8 tag; made in house; host or cells: Chinese hamster ovary cells (transient)
Excerpt: as §1, §2, §3

[3] = target: T3, human BACE1 ECD mutant I171A (110) (Homo sapiens, UniProt P56817, I171A)
T3 construct: extracellular domain (ECD) (residues 22-457) and a C-terminal His8 tag; made in house; host or cells: Chinese hamster ovary cells (transient)
Excerpt: as §1, §2, §3

[4] = target: T4, human BACE1 ECD mutant R189A (128) (Homo sapiens, UniProt P56817, R189A)
T4 construct: extracellular domain (ECD) (residues 22-457) and a C-terminal His8 tag; made in house; host or cells: Chinese hamster ovary cells (transient)
Excerpt: as §1, §2, §3

[5] = target: T5, human BACE1 ECD mutant T293A (232) (Homo sapiens, UniProt P56817, T293A)
T5 construct: its extracellular domain (ECD) (residues 22-457) and a C-terminal His8 tag; His8 (C); made in house; host or cells: Chinese hamster ovary cells (transient, secreted)
Excerpt: as §1, §2, §3

[6] = target: T6, human BACE1 ECD mutant D93A (32) (Homo sapiens, UniProt P56817, D93A)
T6 construct: extracellular domain (ECD) (residues 22-457) and a C-terminal His8 tag; made in house; host or cells: Chinese hamster ovary cells (transient)
Excerpt: as §1, §2, §3

[7] = target: T7, human BACE1 ECD mutant K285A (224) (Homo sapiens, UniProt P56817, K285A)
T7 construct: extracellular domain (ECD) (residues 22-457) and a C-terminal His8 tag; made in house; host or cells: Chinese hamster ovary cells (transient)
Excerpt: as §1, §2, §3

[8] = target: T8, human BACE1 ECD mutant N294A (233) (Homo sapiens, UniProt P56817, N294A)
T8 construct: its extracellular domain (ECD) (residues 22-457) and a C-terminal His8 tag; His8 (C); made in house; host or cells: Chinese hamster ovary cells (transient, secreted)
Excerpt: as §1, §2, §3

[9] = target: T9, human BACE1 ECD mutant Q73A (12) (Homo sapiens, UniProt P56817, Q73A)
T9 construct: extracellular domain (ECD) (residues 22-457) and a C-terminal His8 tag; made in house; host or cells: Chinese hamster ovary cells (transient)
Excerpt: as §1, §2, §3

[10] = target: T10, human BACE1 ECD mutant R296A (235) (Homo sapiens, UniProt P56817, R296A)
T10 construct: its extracellular domain (ECD) (residues 22-457) and a C-terminal His8 tag; His8 (C); made in house; host or cells: Chinese hamster ovary cells (transient, secreted)
Excerpt: as §1, §2, §3

[11] = target: T11, human BACE1 ECD mutant K168A (107) (Homo sapiens, UniProt P56817, K168A)
T11 construct: extracellular domain (ECD) (residues 22-457) and a C-terminal His8 tag; made in house; host or cells: Chinese hamster ovary cells (transient)
Excerpt: as §1, §2, §3

[12] = target: T12, human BACE1 ECD mutant W176A (115) (Homo sapiens, UniProt P56817, W176A)
T12 construct: extracellular domain (ECD) (residues 22-457) and a C-terminal His8 tag; made in house; host or cells: Chinese hamster ovary cells (transient)
Excerpt: as §1, §2, §3

[13] = target: T13, human BACE1 ECD mutant T292A (231) (Homo sapiens, UniProt P56817, T292A)
T13 construct: its extracellular domain (ECD) (residues 22-457) and a C-terminal His8 tag; His8 (C); made in house; host or cells: Chinese hamster ovary cells (transient, secreted)
Excerpt: as §1, §2, §3

[14] = target: T14, human BACE1 ECD mutant K382A (321) (Homo sapiens, UniProt P56817, K382A)
T14 construct: its extracellular domain (ECD) (residues 22-457) and a C-terminal His8 tag; His8 (C); made in house; host or cells: Chinese hamster ovary cells (transient, secreted)
Excerpt: as §1, §2, §3

human BACE1 ECD WT = target: T15, human BACE1 ECD WT (Homo sapiens, UniProt P56817)
T15 construct: extracellular domain (ECD) (residues 22-457) and a C-terminal His8 tag; made in house; host or cells: Chinese hamster ovary cells (transient)
Excerpt: as §1, §2, §3

[15] = target: T16, human BACE1 ECD mutant S96A (35) (Homo sapiens, UniProt P56817, S96A)
T16 construct: extracellular domain (ECD) (residues 22-457) and a C-terminal His8 tag; made in house; host or cells: Chinese hamster ovary cells (transient)
Excerpt: as §1, §2, §3

[16] = target: T17, human BACE1 ECD mutant L91A (30) (Homo sapiens, UniProt P56817, L91A)
T17 construct: extracellular domain (ECD) (residues 22-457) and a C-terminal His8 tag; made in house; host or cells: Chinese hamster ovary cells (transient)
Excerpt: as §1, §2, §3

[17] = target: T18, human BACE1 ECD mutant G291A (230) (Homo sapiens, UniProt P56817, G291A)
T18 construct: its extracellular domain (ECD) (residues 22-457) and a C-terminal His8 tag; His8 (C); made in house; host or cells: Chinese hamster ovary cells (transient, secreted)
Excerpt: as §1, §2, §3

[18] = target: T19, human BACE1 ECD mutant G72A (11) (Homo sapiens, UniProt P56817, G72A)
T19 construct: extracellular domain (ECD) (residues 22-457) and a C-terminal His8 tag; made in house; host or cells: Chinese hamster ovary cells (transient)
Excerpt: as §1, §2, §3

[19] = target: T20, human BACE1 ECD mutant D289A (228) (Homo sapiens, UniProt P56817, D289A)
T20 construct: extracellular domain (ECD) (residues 22-457) and a C-terminal His8 tag; made in house; host or cells: Chinese hamster ovary cells (transient)
Excerpt: as §1, §2, §3

[20] = target: T21, human BACE1 ECD mutant G74A (13) (Homo sapiens, UniProt P56817, G74A)
T21 construct: extracellular domain (ECD) (residues 22-457) and a C-terminal His8 tag; made in house; host or cells: Chinese hamster ovary cells (transient)
Excerpt: as §1, §2, §3

[21] = target: T22, human BACE1 ECD mutant F169A (108) (Homo sapiens, UniProt P56817, F169A)
T22 construct: extracellular domain (ECD) (residues 22-457) and a C-terminal His8 tag; made in house; host or cells: Chinese hamster ovary cells (transient)
Excerpt: as §1, §2, §3

[22] = target: T23, human BACE1 ECD mutant T133A (72) (Homo sapiens, UniProt P56817, T133A)
T23 construct: extracellular domain (ECD) (residues 22-457) and a C-terminal His8 tag; made in house; host or cells: Chinese hamster ovary cells (transient)
Excerpt: as §1, §2, §3

[23] = target: T24, human BACE1 ECD mutant 1I79A (118) (Homo sapiens, UniProt P56817, I179A)
T24 construct: extracellular domain (ECD) (residues 22-457) and a C-terminal His8 tag; made in house; host or cells: Chinese hamster ovary cells (transient)
Excerpt: as §1, §2, §3

[24] = target: T25, human BACE1 ECD mutant T390A (329) (Homo sapiens, UniProt P56817, T390A)
T25 construct: its extracellular domain (ECD) (residues 22-457) and a C-terminal His8 tag; His8 (C); made in house; host or cells: Chinese hamster ovary cells (transient, secreted)
Excerpt: as §1, §2, §3

T4 sequence (P56817 22-457 R189A): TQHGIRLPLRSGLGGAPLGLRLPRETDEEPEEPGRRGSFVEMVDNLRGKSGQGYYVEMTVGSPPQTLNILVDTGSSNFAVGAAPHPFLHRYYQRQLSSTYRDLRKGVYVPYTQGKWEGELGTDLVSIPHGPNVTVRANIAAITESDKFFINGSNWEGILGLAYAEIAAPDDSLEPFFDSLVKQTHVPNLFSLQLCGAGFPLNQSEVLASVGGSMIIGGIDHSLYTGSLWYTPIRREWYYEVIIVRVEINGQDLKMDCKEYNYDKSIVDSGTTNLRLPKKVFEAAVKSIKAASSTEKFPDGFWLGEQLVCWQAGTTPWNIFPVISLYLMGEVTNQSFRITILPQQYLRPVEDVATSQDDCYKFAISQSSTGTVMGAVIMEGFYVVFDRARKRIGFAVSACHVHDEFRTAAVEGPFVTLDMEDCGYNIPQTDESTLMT
T1 sequence (P56817 22-457 Q134A): as the sequence (P56817 22-457 R189A) above, with Q113A, A168R counted along it
T23 sequence (P56817 22-457 T133A): as the sequence (P56817 22-457 R189A) above, with T112A, A168R counted along it
T16 sequence (P56817 22-457 S96A): as the sequence (P56817 22-457 R189A) above, with S75A, A168R counted along it
T13 sequence (P56817 22-457 T292A): as the sequence (P56817 22-457 R189A) above, with A168R, T271A counted along it
T10 sequence (P56817 22-457 R296A): as the sequence (P56817 22-457 R189A) above, with A168R, R275A counted along it
T21 sequence (P56817 22-457 G74A): as the sequence (P56817 22-457 R189A) above, with G53A, A168R counted along it
T7 sequence (P56817 22-457 K285A): as the sequence (P56817 22-457 R189A) above, with A168R, K264A counted along it
T17 sequence (P56817 22-457 L91A): as the sequence (P56817 22-457 R189A) above, with L70A, A168R counted along it
T9 sequence (P56817 22-457 Q73A): as the sequence (P56817 22-457 R189A) above, with Q52A, A168R counted along it
T14 sequence (P56817 22-457 K382A): as the sequence (P56817 22-457 R189A) above, with A168R, K361A counted along it
T24 sequence (P56817 22-457 I179A): as the sequence (P56817 22-457 R189A) above, with I158A, A168R counted along it
T3 sequence (P56817 22-457 I171A): as the sequence (P56817 22-457 R189A) above, with I150A, A168R counted along it
T12 sequence (P56817 22-457 W176A): as the sequence (P56817 22-457 R189A) above, with W155A, A168R counted along it
T19 sequence (P56817 22-457 G72A): as the sequence (P56817 22-457 R189A) above, with G51A, A168R counted along it
T5 sequence (P56817 22-457 T293A): as the sequence (P56817 22-457 R189A) above, with A168R, T272A counted along it
T20 sequence (P56817 22-457 D289A): as the sequence (P56817 22-457 R189A) above, with A168R, D268A counted along it
T18 sequence (P56817 22-457 G291A): as the sequence (P56817 22-457 R189A) above, with A168R, G270A counted along it
T15 sequence (P56817 22-457): as the sequence (P56817 22-457 R189A) above, with A168R counted along it
T11 sequence (P56817 22-457 K168A): as the sequence (P56817 22-457 R189A) above, with K147A, A168R counted along it
T25 sequence (P56817 22-457 T390A): as the sequence (P56817 22-457 R189A) above, with A168R, T369A counted along it
T8 sequence (P56817 22-457 N294A): as the sequence (P56817 22-457 R189A) above, with A168R, N273A counted along it
T2 sequence (P56817 22-457 Y132A): as the sequence (P56817 22-457 R189A) above, with Y111A, A168R counted along it
T6 sequence (P56817 22-457 D93A): as the sequence (P56817 22-457 R189A) above, with D72A, A168R counted along it
T22 sequence (P56817 22-457 F169A): as the sequence (P56817 22-457 R189A) above, with F148A, A168R counted along it

Ac-NEESMYCRLLGIGCG-(PEG)3-biotin [Biotinylated BACE020]
Fold Decrease in Binding EC50 (Mut)/EC50 (WT) [1]: 1990.0 | Fold Decrease in Binding EC50 (Mut)/EC50 (WT) [2]: 72.2 | Fold Decrease in Binding EC50 (Mut)/EC50 (WT) [3]: 1020.0 | Fold Decrease in Binding EC50 (Mut)/EC50 (WT) [4]: 2.7 | Fold Decrease in Binding EC50 (Mut)/EC50 (WT) [5]: 349.0 | Fold Decrease in Binding EC50 (Mut)/EC50 (WT) [6]: 568.0 | Fold Decrease in Binding EC50 (Mut)/EC50 (WT) [7]: 4.0 | Fold Decrease in Binding EC50 (Mut)/EC50 (WT) [8]: 2.4 | Fold Decrease in Binding EC50 (Mut)/EC50 (WT) [9]: 1.7 | Fold Decrease in Binding EC50 (Mut)/EC50 (WT) [10]: 70.9 | Fold Decrease in Binding EC50 (Mut)/EC50 (WT) [11]: 1.0 | Fold Decrease in Binding EC50 (Mut)/EC50 (WT) [12]: 690.0 | Fold Decrease in Binding EC50 (Mut)/EC50 (WT) [13]: 73.6 | Fold Decrease in Binding EC50 (Mut)/EC50 (WT) [14]: 4.5 | Fold Decrease in Binding EC50 (Mut)/EC50 (WT) (human BACE1 ECD WT): 1.0 | Fold Decrease in Binding EC50 (Mut)/EC50 (WT) [15]: 1.0 | Fold Decrease in Binding EC50 (Mut)/EC50 (WT) [16]: 1.0 | Fold Decrease in Binding EC50 (Mut)/EC50 (WT) [17]: 0.8 | Fold Decrease in Binding EC50 (Mut)/EC50 (WT) [18]: 6.5 | Fold Decrease in Binding EC50 (Mut)/EC50 (WT) [19]: 2210.0 | Fold Decrease in Binding EC50 (Mut)/EC50 (WT) [20]: 488.0 | Fold Decrease in Binding EC50 (Mut)/EC50 (WT) [21]: 1.9 | Fold Decrease in Binding EC50 (Mut)/EC50 (WT) [22]: 1.1 | Fold Decrease in Binding EC50 (Mut)/EC50 (WT) [23]: 2.6 | Fold Decrease in Binding EC50 (Mut)/EC50 (WT) [24]: 0.9

Reference: US9624269B2, “Peptide inhibitors of BACE1” (GENENTECH, INC., priority 2011, dated 2017)
